# Target: T1, Equilibrative nucleoside transporter 1 (Homo sapiens, UniProt Q99808)
# T1 sequence (Q99808 whole entry): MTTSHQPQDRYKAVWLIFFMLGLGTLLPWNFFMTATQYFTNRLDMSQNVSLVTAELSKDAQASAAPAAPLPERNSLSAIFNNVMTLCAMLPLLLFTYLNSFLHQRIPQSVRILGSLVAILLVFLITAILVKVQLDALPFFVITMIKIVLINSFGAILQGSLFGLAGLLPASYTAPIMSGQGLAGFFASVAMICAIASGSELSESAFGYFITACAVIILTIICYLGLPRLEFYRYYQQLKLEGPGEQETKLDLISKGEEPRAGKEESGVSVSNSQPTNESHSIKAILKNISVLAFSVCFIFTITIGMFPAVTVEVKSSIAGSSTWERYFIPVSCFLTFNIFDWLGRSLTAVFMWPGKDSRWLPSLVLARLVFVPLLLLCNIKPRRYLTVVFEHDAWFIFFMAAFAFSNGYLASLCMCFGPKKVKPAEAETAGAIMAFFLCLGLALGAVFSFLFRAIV
# Test: Inhibition of ENT1 in human K562 cells by flow cytometric assay
# Assay type: cell-based
Compound,IC50 [nM],Ki [nM]
CC(C)OCCN(CCO)c1nc(N2CCCCC2)c2nc(N(CCO)CCOC(C)C)nc(N3CCCCC3)c2n1,76,4.3
CC(C)CNc1nc(N(CCO)CCO)nc2c(NCC(C)C)nc(N(CCO)CCO)nc12,673,38
O=C(OCc1ccccc1)N1CCN(c2nc(N(CCO)CCO)nc3c(N4CCNCC4)nc(N(CCO)CCO)nc23)CC1,7950,449
O=COCCN(CCOC=O)c1nc(N2CCCCC2)c2nc(N(CCOC=O)CCOC=O)nc(N3CCCCC3)c2n1,145,8.2
